The results in this text go back to patent US8642765B2, “Azaindole-indole coupled derivatives, preparation methods and uses thereof” (priority 2007, dated 2014).

The test system of one data set is DU145 tumor cells. The experiment in a line: MTT growth inhibition of DU145 cells, 72 h. The data set is classed as cell-based, human. To be noted: for IC50 / IC90: DU145, 72 h, MTT; for growth inhibitory effects on tumor cells (in words): discussion of the MTT assay, DU145. The protocol: DU145 cells were inoculated in RPM11640 medium containing 10% calf serum, incubated at 37° C., 5% CO2 in CO2 incubator, and passaged every 2-3 days. In this experiment, cells were grown in logarithmic growth phase.
In the experiment, the cells at logarithmic growth phase were formulated into suspension, and the viability by trypan blue staining was more than 98%. The suspension was divided into several groups: 1 as blank control group (cell suspension); and 2 as experimental groups (cell suspension plus drugs).
(§1) The drugs were formulated into a stock solution in DMSO, and the concentration of the stock solution was 20 mmol (used within 4 hours). In the experiment, the work solution of the drugs was diluted with RPM11640 medium containing 10% calf serum under aseptic condition, to a final concentration of 80 μM. The drug concentrations were increased by 2 times (1.25-20 μM).
(§2) The DU145 cell in logarithmic growth phase were selected, centrifuged, counted, and formulated into a cell suspension (2.5×10^4/ml) with RPM11640 medium containing 10% calf serum. The cell suspension were inoculated into 96-well plates at a density of 5000 cells/200 μl per well, incubated for 24 hours at 37° C., 5% CO2. According to the above concentration of the drug, the cells were inoculated to 6 groups (including one control group), with 8 wells per group. After incubating for 72 hours, the viability of cells was measured by MTT assay. The absorbance value (A) was measured with detection wavelength at 540 nm, reference wavelength at 630 nm. The inhibitory rate (I) was calculated by the following equation, where T was the absorbance value of the experimental groups, and C was the absorbance value of the blank control group: I=(1−T/C)×100%
(§3) The regression equation was calculated by the concentration-inhibitory rate curve, to obtain 50% and 90% inhibition concentration (IC50 and IC90, μM).

The test system of a further data set is phospho-CDK2^Thr160. Briefly: Western blot of phospho-CDK2 in DU145 cells. The data set is classed as cell-based, human. The settings on record: DU145, treated for 24 hours, FIG. 3. From the text: (§4) Reagents: The tested compounds were the same as example 2. Unless otherwise indicated, other chemical reagents were purchased from Sigma Chemical Company (USA). Polyacrylamide gel used in protein electrophoresis, SDS, electrophoresis buffer, transfer buffer protein, nitrocellulose membrane were purchased from American Bio-Rad Life Science Company. Western blotting detection kits and films were purchased from American GE Company. Phospho-CDK2^Thr160 antibody, endogenous cyclin-dependent inhibitor p27 antibody, CyclinD1 and β-Actin antibody were purchased from American Cell Signaling Inc., DAKO and Santa Cruz Biochemical Technology Company.
(§5) Tumor cells and methods for cell culture were the same as example 2.
(§6) Phospho-Cdc2, p27, and Cyclin D1 were Detected by Western Blot: The human prostate cancer cell lines DU145 at logarithmic growth phase were treated with compounds No. 124 and No. 126 (concentration is shown in FIG. 3) for 24 hours. The cells were harvested and washed. Total cellular proteins were extracted and quantified as described previously^[14]. 50 μg of protein was separated on a SDS-PAGE, electro-transferred to nitrocellulose filters. Western blot were performed using specific antibodies against Phospho-CDK2, endogenous cyclin-dependent inhibitor p27 and CyclinD1, with β-Actin antibody as an internal standard. The result was recorded by ECL films.

In the next data set the test system is Cyclin D1. The experiment in a line: Western blot of Cyclin D1 in DU145 cells. The format is cell-based, human. To be noted: DU145, treated for 24 hours, FIG. 3.
Source text: as §4, §5, §6
Background: In western blotting, separated proteins are transferred to a membrane and probed.

Data set [1] deals with endogenous cyclin-dependent inhibitor p27. The experiment in a line: Western blot of p27 in DU145 cells. The data set is classed as cell-based, human. To be noted: DU145, treated for 24 hours, FIG. 3.
Source text: as §4, §5, §6

Data set [2] is described as follows: Safety profile (stated in the discussion, no method described). The settings on record: discussion of Example 2; no data shown.
The test system of data set [3] is human hepatoma cell line 7701 QGY. Briefly: MTT growth inhibition of 7701 QGY cells. To be noted: read-out: IC50 (μM) Tumor cells 7701 QGY. The format is cell-based. On the procedure: as §1, §2, §3
(§7) 1. Tumor Cells: human hepatoma cell lines 7701 QGY and HepG-2, human lung adenocarcinoma cell line A549, human chronic myelocytic leukemia cell line K562, human leukemia cell line CEM and mouse melanoma cell line K111.
(§8) 2. Using the methods described in example 2, the biological activity of a portion of newly synthesized 5- or 7-azaindirubin derivatives and 5- or 7-azaisoindigo derivatives (20 compounds) for inhibiting various tumor cells growth were determined.

Data set [4] concerns human hepatoma cell line HepG-2. The experiment in a line: MTT growth inhibition of HepG-2 cells. The data set is classed as cell-based. To be noted: HepG-2, MTT; read-out: IC50 (μM) Tumor cells HepG-2. The protocol: as §1, §2, §3, §7, §8
The test system of data set [5] is human lung adenocarcinoma cell line A549. Briefly: MTT growth inhibition of A549 cells. The data set is classed as cell-based. To be noted: read-out: IC50 (μM) Tumor cells A549. The protocol:
as §1, §2, §3, §7, §8

Data set [6] relates to human chronic myelocytic leukemia cell line K562. The experiment in a line: MTT growth inhibition of K562 cells. The format is cell-based. The settings on record: read-out: IC50 (μM) Tumor cells K562. On the procedure:
as §1, §2, §3, §7, §8

Data set [7] deals with human leukemia cell line CEM. The experiment in a line: MTT growth inhibition of CEM cells. The data set is classed as cell-based. To be noted: read-out: IC50 (μM) Tumor cells CEM. On the procedure: as §1, §2, §3, §7, §8
Data set [8] relates to mouse melanoma cell line K111. Briefly: MTT growth inhibition of K111 cells. The format is cell-based. The settings on record: Klll, read-out: IC50 (μM) Tumor cells Klll. The protocol: as §1, §2, §3, §7, §8
Data set [9] in a line: Dissolution of solid dispersion preparations. The data set is classed as physicochemical. To be noted: 45 minute, 100 ml of 1% sodium dodecyl sulfate solution, 37±0.5° C., 100 r/min. On the procedure:
Instruments: RCZ-5A capacity medicament dissolve and infiltrate apparatus is made by Tianjin University Precision Instruments Factory. UV1900 UV-Vis spectrophotometer is made by Shanghai Yayan Electronic Science And Technology Co., Ltd.
Dissolution determination methods: According to the third method of XC dissolution assay stated in the appendix of Chinese Pharmacopeia (Edition 2005), the rotation speed was 100 r/min, the temperature was 37±0.5° C., and the dissolution medium was 100 ml of 1% sodium dodecyl sulfate solution degassed ultrasonically. A specimen was withdrawn at 45 minute and immediately filtered through a 0.8 μm water membrane. The filtrate was quantitatively diluted. The absorbance was measured by UV1900, and the dissolution percentage was calculated.

In the case of `CCCCN1C(=O)C(=C2Nc3ccc(Cl)cc3C2=NO)c2cccnc21` [Compound 124], in the data set with DU145 tumor cells (Table 6), it took 1.8 µM to reach half-maximal inhibition (IC50) and the IC90 (in general, the concentration needed for an effect of 90%) amounted to 12 µM. The “growth inhibitory effects on tumor cells (in words)” value (from here on “growth inhibitory effects”) in the data set on DU145 tumor cells is recorded as “relatively significant growth inhibitory effects”. Besides, the “level of CDK2 activity (phosphorylation)” value in the data set with phospho-CDK2^Thr160 is on record as “decreased in a dose-dependent manner”. Moreover, the “protein expression of cyclin D1” value in the data set with Cyclin D1 is given as “significantly decreased”. The “expression of endogenous cyclin-dependent inhibitor p27” value in data set [1] is listed as “significantly increased”. The safety profile entry in [2] is “good safety profile”.

As to `O=C1C(=C2Nc3ccc(Cl)cc3C2=NO)c2cccnc2N1Cc1ccccc1` [Compound 126], the IC50 (in general, the concentration that gives 50% inhibition) turned out to be 7.1 µM in the data set with DU145 tumor cells (Table 6); 11.2 µM in data set [3]; 16.3 µM in [4]; 9.6 µM in data set [5]; 5.1 µM in data set [6]; 8.1 µM in [7]. The IC50 in data set [8] is 14.2 µM. It took 19 µM to reach the 90% level in the data set with DU145 tumor cells (Table 6) (IC90). The “level of CDK2 activity (phosphorylation)” value with phospho-CDK2^Thr160 is reported as “decreased in a dose-dependent manner”. Moreover, the “protein expression of cyclin D1” value with Cyclin D1 is on record as “significantly decreased”. In addition, in [1], the “expression of endogenous cyclin-dependent inhibitor p27” value is on record as “significantly increased”.

In the data set on DU145 tumor cells (Table 5), `O=C1C(=C2C(=O)N(Cc3ccccc3)c3ccncc32)Nc2ccc(Br)cc21` [Compound 18] returned an IC50 of 6.6 µM and a 90% effect concentration (IC90) of 23.5 µM. In addition, in data set [9], the “Dissolution percentages (%)” value is recorded as 4%.

In the data set on DU145 tumor cells (Table 5), `CC(C)N1C(=O)C(=C2Nc3ccc(Br)cc3C2=NO)c2cnccc21` [Compound 30] displayed an IC50 of 3.3 µM and an IC90 of 7 µM. Further, the “growth inhibitory effects” value with DU145 tumor cells is “relatively significant growth inhibitory effects”. Also, in data set [2], the safety profile entry is given as “good safety profile”.

Take `CC(C)N1C(=O)C(=C2Nc3ccc(Br)cc3C2=NO)c2cccnc21` [Compound 121]: the IC50 worked out at 3.1 µM with DU145 tumor cells (Table 6); 14.9 µM in data set [3]; 16 µM in data set [4]; 18.1 µM in data set [5]; 11.5 µM in data set [6]; 11.3 µM in data set [7]. For the same molecule, the IC50 in data set [8] was found to be 6 µM. Besides, the IC90 with DU145 tumor cells (Table 6) came out at 29 µM. For the same molecule, the “growth inhibitory effects” value in the data set with DU145 tumor cells is “relatively significant growth inhibitory effects”. In data set [2], the safety profile entry is reported as “good safety profile”.
